From patent US7829587B2, “Substituted 2-aminotetralin derivatives as selective alpha 2B agonist” (Allergan, Inc., priority 2008, dated 2010)

Legend:
Type in all cases: cell-based
human α2A receptor = target: T1, human α2A receptor (Homo sapiens, UniProt P08913); assay: FLIPR Ca+2 influx assay, α2A; details: for EC50: HEK 293 cells stably expressing human α2A receptor and chimeric G protein Gqi5; for Relative efficacy FLIPR α2A: relative efficacy compared to standard full agonist norepinephrine, HEK 293, human α2A/Gqi5
T1 construct: expressed in transfected cells; host or cells: HEK 293
T1 sequence (P08913 1-465): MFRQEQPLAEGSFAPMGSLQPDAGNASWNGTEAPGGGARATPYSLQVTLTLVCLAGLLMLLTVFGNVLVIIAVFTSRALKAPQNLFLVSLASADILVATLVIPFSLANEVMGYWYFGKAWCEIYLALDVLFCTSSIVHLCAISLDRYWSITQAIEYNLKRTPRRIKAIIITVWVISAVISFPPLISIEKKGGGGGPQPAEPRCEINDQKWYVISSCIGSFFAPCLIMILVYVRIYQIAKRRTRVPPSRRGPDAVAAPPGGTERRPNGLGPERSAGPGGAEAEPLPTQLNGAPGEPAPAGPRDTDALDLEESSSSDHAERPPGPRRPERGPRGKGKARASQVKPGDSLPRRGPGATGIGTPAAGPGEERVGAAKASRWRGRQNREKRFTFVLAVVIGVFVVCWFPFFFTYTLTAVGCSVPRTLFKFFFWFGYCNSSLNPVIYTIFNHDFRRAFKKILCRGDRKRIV
Experimental: (§1) The compounds disclosed herein are agonists of alpha 2B/2C adrenergic receptors. […] This assay is adequate for monitoring the intracellular Ca^2+ mobilization from fluorescent reading to evaluate receptor agonists.
(§2) FLIPR Ca+2 Influx Assay: HEK 293 cells stably expressing the bovine α1A receptor, the rat α1B receptor, the human α2A receptor and the chimeric G protein Gqi5, the human α2C receptor and the chimeric G protein Gqi5 and the mouse α2B receptor and the Gα16 protein were plated in poly-D-lysine coated 384 well plates at 15,000-25,000 cells per well and grown overnight in DMEM supplemented with 10% fetal bovine serum. For FLIPR (fluorometric image plate reader) evaluation, cells were washed 2-4 times with HBSS/HEPES Buffer (1× Hanks Buffered Salt Solution, 20 mM HEPES<pH 7.4) prior to the addition of Fluo-4-AM (4 uM Fluo-4-AM, 0.04% pluronic acid in HBSS/HEPES Buffer), a calcium-sensitive dye. Cells were loaded with Dye for 40 minutes at 30° C., then washed 4-8 times with HBSS/HEPES Buffer to remove excess dye. Cells were preincubated at 37° C. for 3 minutes prior to placement into the FLIPR instrument. The reaction was carried out at 37° C. and was initiated by the addition of the appropriate dilutions of compounds. The transient calcium was captured and the peak height of the calcium curve determined and utilized for calculation of EC50 and efficacy using ActivityBase. Data is stored in the ActivityBase database under the unique identifier “Test Occasion”, which reflects the results of an assay run on a particular date and the individual responsible for the assay. Norepinephrine was the standard full agonist for evaluating alpha1 and alpha2 receptor activity.

rat α1B receptor = target: T2, rat α1B receptor (Rattus norvegicus, UniProt P15823); assay: FLIPR Ca+2 influx assay, α1B; details: for EC50: HEK 293 cells stably expressing rat α1B receptor; for Relative efficacy FLIPR α1B: relative efficacy compared to standard full agonist norepinephrine, HEK 293, rat α1B
T2 construct: expressed in transfected cells; host or cells: HEK 293
T2 sequence (P15823 1-515): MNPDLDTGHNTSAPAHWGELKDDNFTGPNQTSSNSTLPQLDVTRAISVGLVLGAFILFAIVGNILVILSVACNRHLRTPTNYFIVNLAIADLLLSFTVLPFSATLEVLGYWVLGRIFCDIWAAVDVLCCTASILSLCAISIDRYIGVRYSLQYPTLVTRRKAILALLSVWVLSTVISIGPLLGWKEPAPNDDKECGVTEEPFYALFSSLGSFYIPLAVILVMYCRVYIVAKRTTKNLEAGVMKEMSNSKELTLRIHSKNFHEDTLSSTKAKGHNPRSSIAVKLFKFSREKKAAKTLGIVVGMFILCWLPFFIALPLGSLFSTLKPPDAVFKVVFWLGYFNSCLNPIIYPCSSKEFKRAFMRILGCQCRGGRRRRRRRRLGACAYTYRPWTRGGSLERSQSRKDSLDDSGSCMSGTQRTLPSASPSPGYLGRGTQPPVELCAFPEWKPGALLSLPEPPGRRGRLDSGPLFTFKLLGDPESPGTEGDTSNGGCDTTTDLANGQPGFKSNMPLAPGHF
Experimental: as §1, §2

human α2C receptor = target: T3, human α2C receptor (Homo sapiens, UniProt P18825); assay: FLIPR Ca+2 influx assay, α2C; details: for EC50: HEK 293 cells stably expressing human α2C receptor and chimeric G protein Gqi5; for Relative efficacy FLIPR α2C: relative efficacy compared to standard full agonist norepinephrine, HEK 293, human α2C/Gqi5
T3 construct: expressed in transfected cells; host or cells: HEK 293
T3 sequence (P18825 1-462): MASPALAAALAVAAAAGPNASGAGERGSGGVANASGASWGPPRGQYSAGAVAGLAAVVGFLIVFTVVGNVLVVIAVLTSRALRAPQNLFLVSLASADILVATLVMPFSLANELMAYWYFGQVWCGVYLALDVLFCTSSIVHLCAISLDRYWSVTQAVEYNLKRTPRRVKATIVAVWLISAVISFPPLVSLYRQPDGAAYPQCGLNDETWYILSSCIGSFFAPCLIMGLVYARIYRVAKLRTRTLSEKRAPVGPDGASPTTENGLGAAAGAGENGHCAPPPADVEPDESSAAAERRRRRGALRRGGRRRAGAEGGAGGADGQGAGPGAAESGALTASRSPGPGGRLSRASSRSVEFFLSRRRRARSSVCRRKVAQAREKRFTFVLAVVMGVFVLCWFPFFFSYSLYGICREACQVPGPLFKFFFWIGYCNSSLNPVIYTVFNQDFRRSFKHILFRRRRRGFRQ
Experimental: as §1, §2

mouse α2B receptor = target: T4, mouse α2B receptor (Mus musculus, UniProt P30545); assay: FLIPR Ca+2 influx assay, α2B; details: for EC50: HEK 293 cells stably expressing mouse α2B receptor and Gα16 protein; for Relative efficacy FLIPR α2B: relative efficacy compared to standard full agonist norepinephrine, HEK 293, mouse α2B/Gα16
T4 construct: expressed in transfected cells; host or cells: HEK 293
T4 sequence (P30545 1-453): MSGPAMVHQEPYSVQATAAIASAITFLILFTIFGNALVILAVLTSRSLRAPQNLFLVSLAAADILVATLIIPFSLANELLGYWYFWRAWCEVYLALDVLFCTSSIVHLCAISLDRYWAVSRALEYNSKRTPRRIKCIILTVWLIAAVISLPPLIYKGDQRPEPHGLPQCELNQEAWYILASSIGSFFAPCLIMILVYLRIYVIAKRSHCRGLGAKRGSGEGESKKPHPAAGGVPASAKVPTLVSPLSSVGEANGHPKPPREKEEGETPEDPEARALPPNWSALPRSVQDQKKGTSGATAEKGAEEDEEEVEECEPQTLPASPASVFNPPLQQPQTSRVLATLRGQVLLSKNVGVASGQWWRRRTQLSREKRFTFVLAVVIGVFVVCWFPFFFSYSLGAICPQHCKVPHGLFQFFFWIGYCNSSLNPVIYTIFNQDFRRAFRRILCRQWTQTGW
Experimental: as §1, §2

bovine α1A receptor = target: T5, bovine α1A receptor (Bos taurus, UniProt P18130); assay: FLIPR Ca+2 influx assay, α1A; details: for EC50: HEK 293 cells stably expressing bovine α1A receptor; for Relative efficacy FLIPR α1A: relative efficacy compared to standard full agonist norepinephrine, HEK 293, bovine α1A
T5 construct: expressed in transfected cells; host or cells: HEK 293
T5 sequence (P18130 1-466): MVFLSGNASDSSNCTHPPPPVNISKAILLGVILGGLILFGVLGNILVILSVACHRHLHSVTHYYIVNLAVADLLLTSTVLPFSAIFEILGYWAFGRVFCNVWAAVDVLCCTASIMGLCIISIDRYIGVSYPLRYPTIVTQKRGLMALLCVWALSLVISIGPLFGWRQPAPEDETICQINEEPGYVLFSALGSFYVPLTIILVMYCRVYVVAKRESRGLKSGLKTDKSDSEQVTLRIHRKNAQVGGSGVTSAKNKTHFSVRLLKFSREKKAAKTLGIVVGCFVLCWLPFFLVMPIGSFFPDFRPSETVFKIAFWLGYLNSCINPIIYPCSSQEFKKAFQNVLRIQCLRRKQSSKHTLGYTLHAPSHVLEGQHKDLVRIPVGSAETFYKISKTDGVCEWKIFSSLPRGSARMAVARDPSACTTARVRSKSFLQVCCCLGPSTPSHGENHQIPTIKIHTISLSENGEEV
Experimental: as §1, §2

Structure (SMILES) | EC50 (human α2A receptor) | Relative efficacy FLIPR α2A (human α2A receptor) | EC50 (rat α1B receptor) | Relative efficacy FLIPR α1B (rat α1B receptor) | EC50 (human α2C receptor) | Relative efficacy FLIPR α2C (human α2C receptor) | EC50 (mouse α2B receptor) | Relative efficacy FLIPR α2B (mouse α2B receptor) | EC50 (bovine α1A receptor) | Relative efficacy FLIPR α1A (bovine α1A receptor)
CCN(Cc1cccnc1)C1CCc2cccc(OC)c2C1 (stereo not shown) | 0.442 µM | 0.51 | > 10 µM | 0 | 0.652 µM | 0.52 | 0.614 µM | 0.26 | > 10 µM | 0
CCN(Cc1cccnc1)C1CCc2cccc(O)c2C1 (stereo not shown) | 4.5 µM | 0.35 | – | ND (0.36) | – | ND (0.43) | 0.873 µM | 0.89 | 4 µM | 0.29
CCN(Cc1ccccn1)C1CCc2cccc(OC)c2C1 (stereo not shown) | > 10 µM | 0 | > 10 µM | 0 | > 10 µM | 0 | 0.647 µM | 0.14 | > 10 µM | 0
CCN(Cc1ccccn1)C1CCc2cccc(O)c2C1 (stereo not shown) | > 10 µM | 0 | > 10 µM | 0 | > 10 µM | 0 | 0.733 µM | 0.28 | > 10 µM | 0
CCCN(Cc1cccnc1)C1CCc2cccc(OC)c2C1 (stereo not shown) | > 1 µM | 0 | > 10 µM | 0 | – | ND (0.13) | 0.82 µM | 0.47 | > 10 µM | 0
CCCN(Cc1ccccn1)C1CCc2cccc(OC)c2C1 (stereo not shown) | > 10 µM | 0 | > 10 µM | 0 | > 10 µM | 0 | 0.363 µM | 0.63 | > 10 µM | 0
CCCN(Cc1ccccn1)C1CCc2cccc(O)c2C1 (stereo not shown) [drawing 20] | > 10 µM | 0 | > 10 µM | 0 | > 10 µM | 0 | 0.568 µM | 0.69 | > 10 µM | 0
